Assays:
Assay type in all cases: cell-based
[1] = target: N-type calcium channel subunits (α1B, α2δ, and β3a) (Homo sapiens, UniProt Q00975); experiment: Block of Cav2.2 channel, whole cell voltage clamp, manual and PatchXpress; conditions: Table 5; table follows Assay Example 3 (whole cell voltage clamp / PatchXpress); assay not given
In short: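 Percent block taken as current amplitude ratio with versus without compound, applied in rising doses; IC50 fitted where one cell received multiple doses. Protocol: 50 ms pulses to +20 mV at 0.067 Hz from […] or −90 mV holding; P/n leak subtraction, no junction-potential correction; manual and PatchXpress recordings.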

[2] = target: human α1H T-type channels (Homo sapiens, UniProt O95180); experiment: T-type calcium channel block, whole cell patch clamp, α1H; conditions: HEK cells stably expressing human α1H; mainly non-inactivated protocol; values above 10,000 nM represented as 10000
Description: (§1) T-type calcium channel blocking activity was assayed in human embryonic kidneycells, HEK 293 (Invitrogen), stably transfected with the T-type calcium channel subunits. Briefly, cells were cultured in Dulbecco's modified eagle medium (DMEM) supplemented with 10% fetal bovine serum, 200 U/ml penicillin, and 0.2 mg/mL streptomycin at 37° C. with 5% CO2. At 85% confluency, cells were split with 0.25% trypsin/1 mM EDTA and plated at 10% confluency on glass coverslips. At 12 hours, the medium was replaced, and the cells stably transfected using a standard calcium phosphate protocol and the appropriate calcium channel cDNA's. Fresh DMEM was supplied, and the cells transferred to 28° C./5% CO2.
(§2) Standard patch-clamp techniques were employed to identify blockers of T-type currents. Briefly, previously described HEK cell lines stably expressing human α1G, α1H, and α1I T-type channels were used for all the recordings (passage #: 4-20, 37° C., 5% CO2). Whole cell patch clamp experiments were performed using an Axopatch 200B amplifier (Axon Instruments, Burlingame, Calif.) linked to a personal computer equipped with pCLAMP software. Data were analyzed using Clampfit (Axon Instruments) and SigmaPlot 4.0 (Jandel Scientific). To obtain T-type currents, plastic dishes containing semi-confluent cells were positioned on the stage of a ZEISS AXIOVERT S100 microscope after replacing the culture medium with external solution (Table 2). Whole-cell patches were obtained using pipettes (borosilicate glass with filament, O.D.: 1.5 mm, I.D.: 0.86 mm, 10 cm length), fabricated on a SUTTER P-97 puller with resistance values of ˜5 MΩ (Table 3).
(§3) T-type currents were reliably obtained by using two voltage protocols: • “non-inactivating,” and • “inactivation.”
(§4) Test compounds were dissolved in external solution, 0.1-0.01% DMSO. After ˜10 minutes rest, they were applied by gravity close to the cell using a WPI microfil tubing. The “non-inactivated” pre-pulse was used to examine the resting block of a compound. The “inactivated” protocol was employed to study voltage-dependent block.

[3] = target: human α1G T-type channels (Homo sapiens, UniProt O43497); experiment: T-type calcium channel block, whole cell patch clamp, α1G; conditions: HEK cells stably expressing human α1G; mainly non-inactivated protocol; values above 10,000 nM represented as 10000
Description: as §1, §2, §3, §4

Sequence of N-type calcium channel subunits (α1B, α2δ, and β3a) (Q00975 whole entry): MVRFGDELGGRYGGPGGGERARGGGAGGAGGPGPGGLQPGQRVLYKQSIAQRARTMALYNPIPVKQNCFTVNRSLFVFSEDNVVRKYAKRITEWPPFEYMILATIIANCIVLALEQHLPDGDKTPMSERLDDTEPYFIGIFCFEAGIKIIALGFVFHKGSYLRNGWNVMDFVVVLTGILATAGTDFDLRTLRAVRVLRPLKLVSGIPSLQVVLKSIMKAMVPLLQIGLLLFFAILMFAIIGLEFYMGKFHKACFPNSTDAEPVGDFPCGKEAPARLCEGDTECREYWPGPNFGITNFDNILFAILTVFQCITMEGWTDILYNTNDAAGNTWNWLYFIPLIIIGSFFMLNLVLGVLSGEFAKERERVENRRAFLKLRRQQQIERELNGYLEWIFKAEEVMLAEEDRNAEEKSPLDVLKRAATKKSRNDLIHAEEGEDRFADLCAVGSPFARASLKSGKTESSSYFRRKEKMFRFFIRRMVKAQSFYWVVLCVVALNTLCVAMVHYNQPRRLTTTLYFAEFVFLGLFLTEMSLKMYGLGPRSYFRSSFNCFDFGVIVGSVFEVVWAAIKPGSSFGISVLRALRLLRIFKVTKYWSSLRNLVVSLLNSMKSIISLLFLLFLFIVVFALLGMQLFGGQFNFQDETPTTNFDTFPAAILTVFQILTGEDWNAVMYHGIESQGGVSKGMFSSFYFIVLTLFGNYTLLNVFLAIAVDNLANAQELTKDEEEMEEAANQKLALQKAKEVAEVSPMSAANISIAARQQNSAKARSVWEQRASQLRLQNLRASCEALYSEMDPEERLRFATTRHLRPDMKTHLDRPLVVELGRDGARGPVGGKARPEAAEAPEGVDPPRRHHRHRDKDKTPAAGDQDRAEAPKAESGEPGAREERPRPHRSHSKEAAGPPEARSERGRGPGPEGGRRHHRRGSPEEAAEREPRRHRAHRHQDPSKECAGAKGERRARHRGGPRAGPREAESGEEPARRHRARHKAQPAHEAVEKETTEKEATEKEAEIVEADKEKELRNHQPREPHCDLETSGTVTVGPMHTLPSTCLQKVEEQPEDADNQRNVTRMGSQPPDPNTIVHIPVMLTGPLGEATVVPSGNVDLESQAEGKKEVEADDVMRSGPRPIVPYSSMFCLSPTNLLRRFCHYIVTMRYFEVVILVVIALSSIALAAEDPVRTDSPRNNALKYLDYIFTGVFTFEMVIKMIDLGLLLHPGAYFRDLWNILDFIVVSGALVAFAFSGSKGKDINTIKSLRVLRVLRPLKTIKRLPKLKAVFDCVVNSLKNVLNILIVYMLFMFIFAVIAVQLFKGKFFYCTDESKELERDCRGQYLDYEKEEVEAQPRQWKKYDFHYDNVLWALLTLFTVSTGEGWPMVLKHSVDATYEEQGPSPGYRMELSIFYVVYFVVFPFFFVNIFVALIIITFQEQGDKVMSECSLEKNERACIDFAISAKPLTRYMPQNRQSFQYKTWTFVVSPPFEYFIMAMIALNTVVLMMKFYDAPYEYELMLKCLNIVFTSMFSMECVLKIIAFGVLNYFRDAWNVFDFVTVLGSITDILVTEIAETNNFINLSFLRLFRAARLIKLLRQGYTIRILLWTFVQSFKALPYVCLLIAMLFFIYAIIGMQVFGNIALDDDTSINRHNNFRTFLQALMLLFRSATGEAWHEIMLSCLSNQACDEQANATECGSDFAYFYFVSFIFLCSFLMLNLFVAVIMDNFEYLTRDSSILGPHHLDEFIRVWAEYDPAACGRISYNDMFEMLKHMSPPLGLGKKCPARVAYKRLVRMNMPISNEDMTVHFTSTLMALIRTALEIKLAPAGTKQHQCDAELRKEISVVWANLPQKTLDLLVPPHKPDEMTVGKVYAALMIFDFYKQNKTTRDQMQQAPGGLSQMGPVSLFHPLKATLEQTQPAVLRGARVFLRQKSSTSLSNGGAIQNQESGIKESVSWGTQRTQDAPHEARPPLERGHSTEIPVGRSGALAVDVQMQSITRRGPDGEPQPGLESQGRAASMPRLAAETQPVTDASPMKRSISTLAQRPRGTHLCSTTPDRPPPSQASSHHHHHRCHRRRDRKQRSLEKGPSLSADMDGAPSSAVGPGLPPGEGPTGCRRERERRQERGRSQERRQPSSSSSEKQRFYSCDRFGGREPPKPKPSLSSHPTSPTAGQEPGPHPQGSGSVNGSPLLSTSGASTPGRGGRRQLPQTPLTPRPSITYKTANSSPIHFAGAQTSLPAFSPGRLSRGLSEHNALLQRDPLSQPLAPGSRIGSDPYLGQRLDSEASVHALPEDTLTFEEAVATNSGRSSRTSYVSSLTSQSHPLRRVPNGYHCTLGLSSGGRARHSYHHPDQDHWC
Sequence of N-type calcium channel subunits (α1B, α2δ, and β3a) (P54289 25-1103 partner): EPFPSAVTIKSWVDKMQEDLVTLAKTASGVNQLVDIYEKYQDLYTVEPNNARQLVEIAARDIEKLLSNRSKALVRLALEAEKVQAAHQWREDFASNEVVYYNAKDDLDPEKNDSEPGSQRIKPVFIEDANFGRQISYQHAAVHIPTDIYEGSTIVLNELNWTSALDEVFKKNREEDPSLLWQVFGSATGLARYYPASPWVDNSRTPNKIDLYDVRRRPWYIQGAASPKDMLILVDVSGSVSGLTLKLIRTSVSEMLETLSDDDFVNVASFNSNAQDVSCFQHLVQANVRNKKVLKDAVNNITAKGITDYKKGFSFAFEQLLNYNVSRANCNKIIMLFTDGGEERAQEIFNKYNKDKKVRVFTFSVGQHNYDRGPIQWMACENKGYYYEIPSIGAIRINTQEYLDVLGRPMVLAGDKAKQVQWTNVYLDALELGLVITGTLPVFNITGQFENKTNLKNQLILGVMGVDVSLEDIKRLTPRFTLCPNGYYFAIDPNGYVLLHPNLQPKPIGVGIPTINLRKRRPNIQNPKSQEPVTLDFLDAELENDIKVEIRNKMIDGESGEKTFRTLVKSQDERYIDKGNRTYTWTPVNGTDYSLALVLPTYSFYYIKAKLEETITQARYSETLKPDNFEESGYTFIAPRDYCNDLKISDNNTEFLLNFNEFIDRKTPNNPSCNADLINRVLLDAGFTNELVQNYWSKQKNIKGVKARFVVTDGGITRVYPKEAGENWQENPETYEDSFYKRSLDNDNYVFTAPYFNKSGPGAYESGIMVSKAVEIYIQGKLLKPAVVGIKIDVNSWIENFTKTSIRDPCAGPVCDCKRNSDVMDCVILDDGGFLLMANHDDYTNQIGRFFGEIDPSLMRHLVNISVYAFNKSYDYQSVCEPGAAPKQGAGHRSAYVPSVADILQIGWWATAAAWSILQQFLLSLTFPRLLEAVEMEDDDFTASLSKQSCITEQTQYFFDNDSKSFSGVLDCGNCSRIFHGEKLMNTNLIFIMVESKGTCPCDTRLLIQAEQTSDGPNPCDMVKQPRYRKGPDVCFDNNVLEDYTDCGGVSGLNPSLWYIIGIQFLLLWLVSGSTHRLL
Sequence of N-type calcium channel subunits (α1B, α2δ, and β3a) (P54284 whole entry partner): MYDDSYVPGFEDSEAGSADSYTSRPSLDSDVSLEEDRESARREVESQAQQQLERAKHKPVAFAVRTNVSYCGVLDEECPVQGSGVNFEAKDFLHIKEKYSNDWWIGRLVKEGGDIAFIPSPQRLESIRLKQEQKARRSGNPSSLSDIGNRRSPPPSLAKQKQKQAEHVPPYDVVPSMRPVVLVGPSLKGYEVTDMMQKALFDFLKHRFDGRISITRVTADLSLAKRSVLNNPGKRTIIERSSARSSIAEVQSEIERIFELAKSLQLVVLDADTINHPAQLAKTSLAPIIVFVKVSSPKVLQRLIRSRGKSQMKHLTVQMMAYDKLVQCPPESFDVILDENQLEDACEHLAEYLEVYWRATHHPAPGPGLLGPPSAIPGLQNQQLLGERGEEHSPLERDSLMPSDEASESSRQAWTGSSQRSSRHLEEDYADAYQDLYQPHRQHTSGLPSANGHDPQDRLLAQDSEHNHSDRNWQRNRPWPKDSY

Compound | IC50 [1] [nM] | IC50 [2] [µM] | IC50 [3] [µM]
6-fluoro-N-((1R,4R)-4-((3- (trifluoromethyl)phenylsulfonyl) methyl)cyclohexyl)-1H- benzo[d]imidazole-2-carboxamide [Compound 110] | 6020 | > 10 | 
CC1(S(=O)(=O)c2cccc(C(F)(F)F)c2)CCC(NC(=O)c2ccc(C(F)(F)F)cn2)CC1 (centres unmarked) [Compound 3, N-(4-methyl-4-(3-(trifluoromethyl)phenylsulfonyl)cyclohexyl)-5-(trifluoromethyl) picolinamide] | 640 | > 10 | 
CC1(S(=O)(=O)c2cccc(C(F)(F)F)c2)CCC(NC(=O)CCC(F)(F)F)CC1 (centres unmarked) [Compound 5, 4,4,4-trifluoro-N-(4-methyl-4-(3-(trifluoromethyl)phenylsulfonyl)cyclohexyl)butanamide] | 380 | > 10 | 
CC(C)(C)NC(=O)CNC[C@H]1CC[C@@H](S(=O)(=O)c2cccc(C(F)(F)F)c2)CC1 [Compound 35, N-tert-butyl-2-(((1S,4S)-4-(3-(trifluoromethyl)phenylsulfonyl)cyclohexyl)methylamino)acetamide] |  | > 10 | 
COc1cc(F)cc(C(=O)N[C@H]2CC[C@@H](S(=O)(=O)c3cccc(C(F)(F)F)c3)CC2)c1 [Compound 39, 3-fluoro-5-methoxy-N-((1S,4S)-4-(3-(trifluoromethyl)phenylsulfonyl)cyclohexyl)benzamide] | 410 | > 10 | 
Cn1cc(C(=O)N[C@H]2CC[C@@H](S(=O)(=O)c3cccc(C(F)(F)F)c3)CC2)c(C(F)(F)F)n1 [Compound 45, 1-methyl-3-(trifluoromethyl)-N-((1S,4S)-4-(3-(trifluoromethyl)phenylsulfonyl)cyclohexyl)-1H-pyrazole-4-carboxamide] | 1290 | > 10 | 
CC1(CNC(=O)c2ccc(F)c(Cl)c2)CCC(F)(S(=O)(=O)c2cccc(C(F)(F)F)c2)CC1 (centres unmarked) [Compound 153, 3-chloro-4-fluoro-N-((4-fluoro-1-methyl-4-(3-(trifluoromethyl)phenylsulfonyl)cyclohexyl)methyl)benzamide] | 500 |  | 5.23
CC1(CNC(=O)c2cc(F)cc(Cl)c2)CCC(F)(S(=O)(=O)c2cccc(C(F)(F)F)c2)CC1 (centres unmarked) [Compound 154, 3-chloro-5-fluoro-N-((4-fluoro-1-methyl-4-(3-(trifluoromethyl)phenylsulfonyl)cyclohexyl)methyl)benzamide] | 450 |  | 3.6
CC1(CNC(=O)c2ccc(C(F)(F)F)cc2S(C)(=O)=O)CCC(F)(S(=O)(=O)c2cccc(C(F)(F)F)c2)CC1 (centres unmarked) [Compound 155, N-((4-fluoro-1-methyl-4-(3-(trifluoromethyl)phenylsulfonyl)cyclohexyl)methyl)-2-(methylsulfonyl)-4-(trifluoromethyl)benzamide] | 540 |  | 0.96
CN(CC(=O)N[C@H]1CC[C@H](CS(=O)(=O)c2cccc(C(F)(F)F)c2)CC1)C1CCCCC1 [Compound 163] | 470 |  | > 10
CC1(CNC(=O)c2ccc(C(F)(F)F)nc2)CCC(S(=O)(=O)c2cccc(C(F)(F)F)c2)CC1 (centres unmarked) [Compound 213, N-((1-methyl-4-(3-(trifluoromethyl)phenylsulfonyl)cyclohexyl)methyl)-6-(trifluoromethyl)nicotinamide] | 620 |  | 0.94
O=C(NC[C@]1(O)CC[C@@H](S(=O)(=O)c2cccc(C(F)(F)F)c2)CC1)c1cc(F)cc(Cl)c1 [Compound 228, 3-chloro-5-fluoro-N-(((1S,4S)-1-hydroxy-4-(3-(trifluoromethyl)phenylsulfonyl)cyclohexyl)methyl)benzamide] | 740 |  | 0.33
O=C(NC[C@]1(O)CC[C@@H](S(=O)(=O)c2cccc(C(F)(F)F)c2)CC1)c1ccc(F)c(C(F)(F)F)c1 [Compound 234, 4-fluoro-N-(((1S,4S)-1-hydroxy-4-(3-(trifluoromethyl)phenylsulfonyl)cyclohexyl)methyl)-3-(trifluoromethyl)benzamide] | 870 |  | 2.12
O=C(N[C@H]1CC[C@@](F)(S(=O)(=O)c2cccc(C(F)(F)F)c2)CC1)c1ccc(F)c(Cl)c1 [Compound 238, 3-chloro-4-fluoro-N-((1S,4S)-4-fluoro-4-(3-(trifluoromethyl)phenylsulfonyl)cyclohexyl)benzamide] | 90 |  | 2.78
CS(=O)(=O)c1cc(C(F)(F)F)ccc1C(=O)N[C@H]1CC[C@@](F)(S(=O)(=O)c2cccc(C(F)(F)F)c2)CC1 [Compound 239, N-((1S,4S)-4-fluoro-4-(3-(trifluoromethyl)phenylsulfonyl)cyclohexyl)-2-(methylsulfonyl)-4-(trifluoromethyl)benzamide] | 340 |  | 1.61
Cn1nc(C(F)(F)F)cc1C(=O)N[C@H]1CC[C@@](F)(S(=O)(=O)c2cccc(C(F)(F)F)c2)CC1 [Compound 241, N-((1S,4S)-4-fluoro-4-(3-(trifluoromethyl)phenylsulfonyl)cyclohexyl)-1-methyl-3-(trifluoromethyl)-1H-pyrazole-5-carboxamide] | 130 |  | 1.45
COc1cc(C(=O)N[C@H]2CC[C@@](F)(S(=O)(=O)c3cccc(C(F)(F)F)c3)CC2)cc(Cl)n1 [Compound 242, 2-chloro-N-((1S,4S)-4-fluoro-4-(3-(trifluoromethyl)phenylsulfonyl)cyclohexyl)-6-methoxyisonicotinamide] | 110 |  | 4.3
Cc1cc(C(=O)N[C@H]2CC[C@@](F)(S(=O)(=O)c3cccc(C(F)(F)F)c3)CC2)c(C(F)(F)F)o1 [Compound 243] | 60 |  | 4.45
CC(C)(C)S(=O)(=O)c1ccsc1C(=O)N[C@H]1CC[C@@](F)(S(=O)(=O)c2cccc(C(F)(F)F)c2)CC1 [Compound 244, 3-(tert-butylsulfonyl)-N-((1S,4S)-4-fluoro-4-(3-(trifluoromethyl)phenylsulfonyl)cyclohexyl)thiophene-2-carboxamide] | 40 |  | 3.57
O=C(N[C@H]1CC[C@@](F)(S(=O)(=O)c2cccc(C(F)(F)F)c2)CC1)c1ccnn1CC(F)(F)F [Compound 245, N-((1S,4S)-4-fluoro-4-(3-(trifluoromethyl)phenylsulfonyl)cyclohexyl)-1-(2,2,2-trifluoroethyl)-1H-pyrazole-5-carboxamide] | 130 |  | 3.81
O=C(N[C@H]1CC[C@@](F)(S(=O)(=O)c2cccc(C(F)(F)F)c2)CC1)c1ccnc(C(F)(F)F)c1 [Compound 246] | 130 |  | 1.72
O=S(=O)(N[C@H]1CC[C@@](F)(S(=O)(=O)c2cccc(C(F)(F)F)c2)CC1)c1ccc(C(F)(F)F)cc1 [Compound 301, N-((1S,4S)-4-fluoro-4-(3-(trifluoromethyl)phenylsulfonyl)cyclohexyl)-4-(trifluoromethyl) benzenesulfonamide] | 530 |  | > 10
CC(C)(C)NC(=O)CNC[C@H]1C[C@H](S(=O)(=O)c2cccc(C(F)(F)F)c2)C1 [Compound 359, N-tert-butyl-2-(((1R,3R)-3-(3-(trifluoromethyl)phenylsulfonyl)cyclobutyl)methylamino)acetamide] | 1610 |  | 5.42
O=C(Nc1ccc(Oc2ccc(F)cc2)nc1)[C@H]1C[C@H](S(=O)(=O)c2cccc(C(F)(F)F)c2)C1 [Compound 405, (1R,3R)-N-(6-(4-fluorophenoxy)pyridin-3-yl)-3-(3-(trifluoromethyl)phenylsulfonyl)cyclobutane carboxamide] | 1300 |  | > 10
O=S(=O)(NC[C@H]1C[C@H](S(=O)(=O)c2cccc(C(F)(F)F)c2)C1)c1ccccc1C(F)(F)F [Compound 426, 2-(trifluoromethyl)-N-(((1R,3R)-3-(3-(trifluoromethyl)phenylsulfonyl)cyclobutyl)methyl)benzenesulfonamide] | 1140 |  | > 10
CC(C)(CCNC(=O)c1ccc(F)c(C(F)(F)F)c1)S(=O)(=O)c1cccc(C(F)(F)F)c1 [Compound 466, 4-fluoro-N-(3-methyl-3-(3-(trifluoromethyl)phenylsulfonyl)butyl)-3-(trifluoromethyl)benzamide] |  | 0.55 | 
